Test results taken from article PMC12646544, “Bioremediation of acetamiprid and sulfoxaflor co-contamination by Ensifer sp. DA6 and characterization of a novel nitrile hydratase involved” (Frontiers in Microbiology, 2025).

Test system: T1, Ensifer sp. DA6 NHase
T1 construct: gene nthA; NHase gene cluster (alpha, beta, accessory) in pET28a, E. coli Rosetta (DE3), N-terminal 6xHis-tag, Ni-NTA purified; cobalt type; accessory protein not detected on SDS-PAGE; forward primer encodes MSEHHHG; alpha motif VCTLCSC; with Nitrile hydratase accessory protein
Assay: HPLC, Michaelis-Menten non-linear regression
Assay type: biochemical
Conditions: 50 mmol/L PBS pH 7.0, 45 °C, cobalt enzyme, 25-1,000 mg/L substrate
Description: HPLC, Michaelis-Menten non-linear regression on Ensifer sp.

C/C(=N\C#N)N(C)Cc1ccc(Cl)nc1 [ACE, N-[(6-chloro-3-pyridyl)methyl]-N′-cyano-N-methylacetamidine]
Km (60 min): 8.16 mM

CC(c1ccc(C(F)(F)F)nc1)S(C)(=O)=NC#N (centres unmarked) [SUL, [N-(methyloxido{1-[6-(trifluoromethyl)-3-pyridinyl]ethyl}-λ^4-sulfanylidene)cyanamide]]
Km (30 min, stereoisomer mixture): 7.93 mM
